According to patent publication US4428957A, “6-Isothiocyano-5-methoxy-2-tert.-butylbenzthiazole and a method of controlling ruminant liver flukes therewith” (Ciba-Geigy Corporation, priority 1978, dated 1984):
Read-outs that look alike come from different tables or passages of the source.

Columns and labels:
Fasciola hepatica = assay: Test on sheep infested with Fasciola hepatica; type: in vivo, Fasciola hepatica (host: sheep); details: for minimal effective dose: Fasciola hepatica
Description: The active substance is introduced in the form of a suspension, by means of a stomach probe or by injection, into the rumen of sheep which have been artificially infested with Fasciola hepatica. Three animals are used per test and per dose, each animal being treated with just one single dose. An initial evaluation is made by comparing the numbers of worm eggs excreted in the droppings of the sheep before and after the treatment. The sheep are killed and dissected three to four weeks after the treatment. The second evaluation is on the basis of a count of the liver flukes which have remained behind in the hepatic ducts after the treatment. Simultaneously and similarly infested but untreated sheep are used as a control or comparison. The difference in the numbers of liver flukes in the two groups is a measure of the degree of effectiveness of the active substance tested.
(§1) The active substances are introduced in the form of a suspension, by means of a stomach probe or by injection, into the rumen of the experimental animals. Three to five sheep are used per test and per dose, each animal being treated with just one single dose. The sheep are kept under observation during 14 days after the treatment, and they are weighed at regular intervals. Any clinical symptoms and cases of death occurring are recorded during this period. Similar sheep (with regard to breed, age and weight) which have not been treated with the respective active substance are kept as control animals together with the treated experimental animals. The same parameters are recorded in the case of the control sheep as in the case of the treated sheep. The minimum effective dose (MED) of 25 mg/kg (see Table) in the case of the compound of formula I is effective in sheep not only against Fasciola hepatica but also against nematodes such as Haemonchus concortus, Trichostrongylus colubriformis and Ostertagia circumcincta, and against cestodes such as Moniezia benedeni.

[1] = Compatibility in the case of the sheep; details: in vivo; for MTD at 336 h: single dose into the rumen, 14 days observation, read-out: MTD (maximum tolerated dose)
Protocol: as §1

Haemonchus contortus = assay: Test on sheep infected with nematodes: Haemonchus contortus; type: in vivo, Haemonchus contortus (host: sheep); details: read-out: minimum effective dose (MED), effective also against Haemonchus concortus
Description: (§2) The active substance is introduced in the form of a suspension by means of a stomach probe, or by injection, into the rumen of sheep which have been artificially infested with nematodes such as Haemonchus controtus and Trichostrongylus colubriformis. Three animals are used per test and per dose, each sheep being treated with just one single dose. An initial evaluation is made by comparing the numbers of worm eggs excreted in the dropping of the sheep before and after the treatment. Seven to ten days after the treatment, the sheep are killed and dissected. A second evaluation is then made by carrying out a count of the worm which have remained behind in the intestine after the treatment. Sheep which have been simultaneously and similarly infested but not treated with the active substance are used as a control or comparison.

[2] = test system: Trichostrongylus colubriformis; assay: Test on sheep infected with nematodes: Trichostrongylus colubriformis; type: in vivo, Trichostrongylus colubriformis (host: sheep); details: read-out: minimum effective dose (MED), effective also against Trichostrongylus colubriformis
Description: as §2

Ostertagia circumcincta = assay: Test on sheep infected with nematodes: Ostertagia circumcincta; type: in vivo, Ostertagia circumcincta (host: sheep); details: Teladorsagia circumcincta, read-out: minimum effective dose (MED), effective also against Ostertagia circumcincta
Description: as §2

Moniezia benedeni = assay: Test on sheep infested with cestodes: Moniezia benedeni; type: in vivo, Moniezia benedeni (host: sheep); details: read-out: minimum effective dose (MED), effective also against Moniezia benedeni
Description: The active substance is introduced in the form of a suspension, by means of a stomach probe or by injection, into the rumen of sheep which are infested with cestodes such as Moniezia benedeni. Three animals are used per test and per dose, each sheep being treated with just one single dose. The sheep are killed and dissected seven to ten days after the treatment. The evaluation is made on the basis of a count of the worms which have remained behind in the intestine after the treatment. Sheep which have been simultaneously and similarly infested but not treated with the active substance are used as a control or comparison.

Litomosoides carinii = assay: filariasis: Litomosoides carinii in Mongolian jirds and multimammate rats; type: in vivo
Dipetalonea viteae = assay: filariasis: Dipetalonea viteae in Mongolian jirds and multimammate rats; type: in vivo
Brugia pahangi = assay: filariasis: Brugia pahangi in multimammate rats; type: in vivo, Brugia pahangi (host: multimammate rats)
Brugia malayi = assay: filariasis: Brugia malayi in multimammate rats; type: in vivo, Brugia malayi (host: multimammate rats)
Schistosoma mansoni = assay: schistosomiasis: Schistosoma mansoni in mice and Syrian hamsters; type: in vivo, Schistosoma mansoni (host: mice and Syrian hamsters)
Schistosoma japonicum = assay: schistosomiasis: Schistosoma japonicum in dogs; type: in vivo, Schistosoma japonicum (host: dogs)
Nipprostrongylus species = assay: gastro-intestinal helminths: tests with various Nipprostrongylus species; type: in vivo; details: compound and its non-toxic salts
[3] = test system: parasitic helminths, especially Nematodes and Trematodes; assay: anthelmintic activity against parasitic helminths, various test models; type: in vivo
[4] = read-out: MED (minimum effective dose)

In the case of `CC(C)(C)c1nc2ccc(N=C=S)cc2s1` [No. 2, reference compound], the minimal effective dose (Fasciola hepatica; [4]) is reported as 100 mg/kg and the MTD at 336 h [1] is reported as 200 mg/kg.
`COc1cc2nc(C(C)C)sc2cc1N=C=S` [No. 3, reference compound] showed a minimal effective dose (Fasciola hepatica; [4]) greater than 100 mg/kg and an MTD at 336 h [1] of 200 mg/kg.
Compound `CC(C)c1nc2ccc(N=C=S)cc2s1` [No. 4, reference compound] has a minimal effective dose (Fasciola hepatica; [4]) greater than 200 mg/kg and an MTD at 336 h [1] of 200 mg/kg.
In the case of `COc1cc2nc(C(C)(C)C)sc2cc1N=C=S` [compound of the formula I, 6-isothiocyano-5-methoxy-2-tert.-butyl-benzothiazole], the minimal effective dose (Fasciola hepatica; [4]) is reported as 25 mg/kg, the “action against liver flukes in sheep” value (Fasciola hepatica; sheep) is reported as “excellent action against liver flukes in sheep” and the minimal effective dose (Fasciola hepatica; sheep, read-out: minimum effective dose (MED)) is reported as 25 mg/kg. For the same compound, the selectivity ratio ([1]; liver flukes, read-out: therapeutic index (maximum tolerated dose/minimum effective dose)) was roughly 13, the MTD at 336 h [1] was 320 mg/kg and the minimal effective dose (Haemonchus contortus) was 25 mg/kg. The minimal effective dose [2] was 25 mg/kg, the minimal effective dose (Ostertagia circumcincta) was 25 mg/kg and the minimal effective dose (Moniezia benedeni) was 25 mg/kg. For the same compound, the “potency against filariasis, micro- and macrofilariae” value (from here on “potency against filariasis”) (Litomosoides carinii) was “pronounced potency”, the “potency against filariasis” value (Dipetalonea viteae) was “pronounced potency” and the “potency against filariasis” value (Brugia pahangi) was “pronounced potency”. For the same compound, the “potency against filariasis” value (Brugia malayi) was “pronounced potency”, the antischistosomal effects (Schistosoma mansoni) was “pronounced antischistosomal effects” and the antischistosomal effects (Schistosoma japonicum) was “pronounced antischistosomal effects”. The “properties against gastro-intestinal helminths” value (Nipprostrongylus species) was “surprising properties against gastro-intestinal helminths”, the anthelmintic properties ([3]; general) was “generally good anthelmintic properties” and the “activity against filariasis, schistosomiasis and gastro-intestinal helminths” value ([3]; various test models) was “excellent activity”. The “anthelminthic activities against a broad variety of parasitic helminths” value ([3]; warm-blooded organisms, compound and non-toxic salts) was “extremely potent anthelminthic activities”.
